How the values were obtained:
Assay type in all cases: in vivo
[1] = system: Veronica persica; assay: Pre-emergence herbicide efficacy at 320 g/ha, VERPE; details: scored visually after about 3 weeks vs untreated controls, 100% = plants have died
Summary of the method: (§1)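 Weed seeds were sown in sandy loam, covered with soil, and the soil surface was sprayed with WP- or EC-formulated compound as aqueous suspension/emulsion plus 0.5% additive at 600 L/ha water. Pots stood in a greenhouse; about 3 weeks later efficacy was scored visually as % versus untreated controls (100% = plants dead, 0% = like control).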

[2] = system: Setaria viridis; assay: Pre-emergence herbicide efficacy at 80 g/ha, SETVI
Excerpt: (§2) Unwanted plants/weeds: • ABUTH: Abutilon theophrasti • ALOMY: Alopecurus myosuroides • AMARE: Amaranthus retroflexus • DIGSA: Digitaria sanguinalis • ECHCG: Echinochloa crus-galli • KCHSC: Kochia scoparia • LOLRI: Lolium rigidum • MATIN: Matricaria inodora • POAAN: Poa annua • POLCO: Polygonum convolvulus • SETVI: Setaria viridis • STEME: Stellaria media • VERPE: Veronica persica • VIOTR: Viola tricolor A. Post-Emergence Herbicidal Efficacy at 320 g/ha
(§3) Seeds of monocotyledonous and dicotyledonous weed plants and crop plants were placed in plastic or organic planting pots and covered with soil. The compounds of the invention, formulated in the form of wettable powders (WP) or as emulsion concentrates (EC), were then applied to the surface of the covering soil as aqueous suspension or emulsion with addition of 0.5% additive at a water application rate equivalent to 600 l/ha. After the treatment, the pots were placed in a greenhouse and kept under good growth conditions for the test plants. After about 3 weeks, the efficacy of the preparations was scored visually in comparison with untreated controls as percentages. For example, 100% activity=the plants have died, 0% activity=like control plants.
(§4) Tables D1 to D12 below show the effects of selected compounds of the general formula (I) according to Table 1 on various harmful plants and an application rate corresponding to 80 g/ha, which were obtained by the experimental procedure mentioned above.

[3] = system: Viola tricolor; assay: Pre-emergence herbicide efficacy at 80 g/ha, VIOTR
Excerpt: as §2, §3, §4

[4] = system: Echinochloa crus-galli; assay: Post-emergence herbicidal efficacy at 320 g/ha, ECHCG; details: rated visually after about 3 weeks vs untreated controls, 100% = plants have died
Summary of the method: (§5)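 Weeds grown from seed in sandy loam in the greenhouse were sprayed at the one-leaf stage, 2 to 3 weeks after sowing. WP or EC formulations were applied as aqueous spray with 0.5% additive at 600 L/ha. Injury was scored visually about 3 weeks later against untreated controls (0% = like control, 100% = dead).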

[5] = system: Abutilon theophrasti; assay: Pre-emergence herbicide efficacy at 320 g/ha, ABUTH; details: scored visually after about 3 weeks vs untreated controls, 100% = plants have died
Excerpt: as §2
(§6) Seeds of mono- and dicotyledonous weed plants were placed in plastic pots in sandy loam soil (doubly sown with one species each of mono- or dicotyledonous weed plants per pot) and covered with soil. The compounds of the invention, formulated in the form of wettable powders (WP) or as emulsion concentrates (EC), were then applied to the surface of the covering soil as aqueous suspension or emulsion with addition of 0.5% additive at a water application rate of 600 litres per hectare (converted). After the treatment, the pots were placed in a greenhouse and kept under good growth conditions for the test plants. After about 3 weeks, the efficacy of the preparations was scored visually in comparison with untreated controls as percentages.
(§7) For example, 100% activity=the plants have died, 0% activity=like control plants.
(§8) Tables C1 to C12 below show the effects of selected compounds of the general formula (I) according to Table 1 on various harmful plants and at an application rate corresponding to 320 g/ha, which were obtained by the trial procedure specified above.

[6] = system: Alopecurus myosuroides; assay: Post-emergence herbicidal efficacy at 320 g/ha, ALOMY; details: rated visually after about 3 weeks vs untreated controls, 100% = plants have died
Excerpt: as §2
(§9) Seeds of mono- and dicotyledonous weed plants were placed in plastic pots in sandy loam soil (doubly sown with in each case one species of mono- or dicotyledonous weed plants per pot), covered with soil and cultivated in a greenhouse under controlled growth conditions. 2 to 3 weeks after sowing, the test plants were treated at the one-leaf stage. The compounds of the invention, formulated in the form of wettable powders (WP) or as emulsion concentrates (EC), were applied to the green parts of the plants as aqueous suspension or emulsion with addition of 0.5% additive at a water application rate equivalent to 600 litres per hectare. After the test plants had been kept in the greenhouse under optimum growth conditions for about 3 weeks, the activity of the preparations was rated visually in comparison to untreated controls.
as §7
(§10) Tables A1 to A10 below show the effects of selected compounds of the general formula (I) according to Table 1 on various harmful plants and at an application rate corresponding to 320 g/ha, which were obtained by the trial procedure specified above.

[7] = system: Digitaria sanguinalis; assay: Post-emergence herbicidal efficacy at 320 g/ha, DIGSA; details: rated visually after about 3 weeks vs untreated controls, 100% = plants have died
Excerpt: as §2, §9, §7, §10

[8] = system: Digitaria sanguinalis; assay: Pre-emergence herbicide efficacy at 80 g/ha, DIGSA; details: scored visually after about 3 weeks vs untreated controls, 100% = plants have died
Excerpt: as §2, §3, §4

[9] = system: Stellaria media; assay: Pre-emergence herbicide efficacy at 320 g/ha, STEME; details: scored visually after about 3 weeks vs untreated controls, 100% = plants have died
Summary of the method: as §1

[10] = system: Setaria viridis; assay: Post-emergence herbicidal efficacy at 80 g/ha, SETVI; details: rated visually after about 3 weeks vs untreated controls, 100% = plants have died
Excerpt: as §2
(§11) Seeds of monocotyledonous and dicotyledonous weeds and crop plants were placed in sandy loam in plastic or organic planting pots, covered with soil and cultivated in a greenhouse under controlled growth conditions. 2 to 3 weeks after sowing, the test plants were treated at the one-leaf stage. The compounds of the invention, formulated in the form of wettable powders (WP) or as emulsion concentrates (EC), were then sprayed onto the green parts of the plants as aqueous suspension or emulsion with addition of 0.5% additive at a water application rate of 600 l/ha (converted). After the test plants had been kept in the greenhouse under optimum growth conditions for about 3 weeks, the activity of the preparations was rated visually in comparison to untreated controls. For example, 100% activity=the plants have died, 0% activity=like control plants.
(§12) Tables B1 to B11 below show the effects of selected compounds of the general formula (I) according to Table 1 on various harmful plants and an application rate corresponding to 80 g/ha, which were obtained by the experimental procedure mentioned above.

[11] = system: Kochia scoparia; assay: Post-emergence herbicidal efficacy at 320 g/ha, KCHSC; details: rated visually after about 3 weeks vs untreated controls, 100% = plants have died
Summary of the method: as §5

[12] = system: Abutilon theophrasti; assay: Post-emergence herbicidal efficacy at 320 g/ha, ABUTH; details: rated visually after about 3 weeks vs untreated controls, 100% = plants have died
Summary of the method: as §5

[13] = system: Kochia scoparia; assay: Post-emergence herbicidal efficacy at 80 g/ha, KCHSC; details: rated visually after about 3 weeks vs untreated controls, 100% = plants have died
Excerpt: as §2, §11, §12

[14] = system: Amaranthus retroflexus; assay: Post-emergence herbicidal efficacy at 80 g/ha, AMARE; details: rated visually after about 3 weeks vs untreated controls, 100% = plants have died
Summary of the method: (§13)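 Weeds grown from seed in sandy loam under controlled greenhouse conditions were sprayed on green parts at the one-leaf stage, 2 to 3 weeks after sowing. WP or EC formulations were applied in water with 0.5% additive at 600 l/ha. Activity was scored visually about 3 weeks later against untreated controls (0% = like control, 100% = dead).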

[15] = system: Veronica persica; assay: Post-emergence herbicidal efficacy at 320 g/ha, VERPE; details: rated visually after about 3 weeks vs untreated controls, 100% = plants have died
Summary of the method: as §5

[16] = system: Veronica persica; assay: Pre-emergence herbicide efficacy at 80 g/ha, VERPE
Excerpt: as §2, §3, §4

[17] = system: Veronica persica; assay: Post-emergence herbicidal efficacy at 80 g/ha, VERPE; details: rated visually after about 3 weeks vs untreated controls, 100% = plants have died
Summary of the method: as §13

[18] = system: Viola tricolor; assay: Post-emergence herbicidal efficacy at 80 g/ha, VIOTR; details: rated visually after about 3 weeks vs untreated controls, 100% = plants have died
Excerpt: as §2, §11, §12

[19] = system: Echinochloa crus-galli; assay: Pre-emergence herbicide efficacy at 320 g/ha, ECHCG; details: scored visually after about 3 weeks vs untreated controls, 100% = plants have died
Excerpt: as §2, §6, §7, §8

[20] = system: Kochia scoparia; assay: Pre-emergence herbicide efficacy at 320 g/ha, KCHSC; details: scored visually after about 3 weeks vs untreated controls, 100% = plants have died
Summary of the method: as §1

[21] = system: Setaria viridis; assay: Pre-emergence herbicide efficacy at 320 g/ha, SETVI; details: scored visually after about 3 weeks vs untreated controls, 100% = plants have died
Summary of the method: as §1

[22] = system: Poa annua; assay: Pre-emergence herbicide efficacy at 320 g/ha, POAAN; details: scored visually after about 3 weeks vs untreated controls, 100% = plants have died
Summary of the method: as §1

[23] = system: Stellaria media; assay: Post-emergence herbicidal efficacy at 320 g/ha, STEME; details: rated visually after about 3 weeks vs untreated controls, 100% = plants have died
Summary of the method: as §5

[24] = system: Amaranthus retroflexus; assay: Post-emergence herbicidal efficacy at 320 g/ha, AMARE; details: rated visually after about 3 weeks vs untreated controls, 100% = plants have died
Summary of the method: as §5

[25] = system: Amaranthus retroflexus; assay: Pre-emergence herbicide efficacy at 80 g/ha, AMARE; details: scored visually after about 3 weeks vs untreated controls, 100% = plants have died
Excerpt: as §2, §3, §4

[26] = system: Abutilon theophrasti; assay: Post-emergence herbicidal efficacy at 80 g/ha, ABUTH; details: rated visually after about 3 weeks vs untreated controls, 100% = plants have died
Excerpt: as §2, §11, §12

[27] = system: Digitaria sanguinalis; assay: Pre-emergence herbicide efficacy at 320 g/ha, DIGSA; details: scored visually after about 3 weeks vs untreated controls, 100% = plants have died
Summary of the method: as §1

[28] = system: Alopecurus myosuroides; assay: Pre-emergence herbicide efficacy at 320 g/ha, ALOMY; details: scored visually after about 3 weeks vs untreated controls, 100% = plants have died
Excerpt: as §2, §6, §7, §8

[29] = system: Amaranthus retroflexus; assay: Pre-emergence herbicide efficacy at 320 g/ha, AMARE; details: scored visually after about 3 weeks vs untreated controls, 100% = plants have died
Summary of the method: as §1

[30] = system: Poa annua; assay: Post-emergence herbicidal efficacy at 320 g/ha, POAAN; details: rated visually after about 3 weeks vs untreated controls, 100% = plants have died
Excerpt: as §2, §9, §7, §10

SMILES: Fc1cccc(Nc2ncc(Cl)cn2)c1-c1cc(C(F)F)no1 [Example 1-33]
- Pre-emergence efficacy at 320 g/ha against VERPE in % [1]: 100%
- Pre-emergence efficacy against SETVI [2]: 100%
- Pre-emergence efficacy against VIOTR [3]: 90%
- Post-emergence efficacy at 320 g/ha against ECHCG in % [4]: 100%
- Pre-emergence efficacy at 320 g/ha against ABUTH in % [5]: 100%
- Post-emergence efficacy at 320 g/ha against ALOMY in % [6]: 100%
- Post-emergence efficacy at 320 g/ha against DIGSA in % [7]: 100%
- Pre-emergence efficacy at 80 g/ha against DIGSA in % [8]: 90%
- Pre-emergence efficacy at 320 g/ha against STEME in % [9]: 100%
- Post-emergence efficacy at 80 g/ha against SETVI in % [10]: 100%
- Post-emergence efficacy at 320 g/ha against KCHSC in % [11]: 100%
- Post-emergence efficacy at 320 g/ha against ABUTH in % [12]: 100%
- Post-emergence efficacy at 80 g/ha against KCHSC in % [13]: 100%
- Post-emergence efficacy at 80 g/ha against AMARE in % [14]: 100%
- Post-emergence efficacy at 320 g/ha against VERPE in % [15]: 100%
- Pre-emergence efficacy against VERPE [16]: 90%
- Post-emergence efficacy at 80 g/ha against VERPE in % [17]: 100%
- Post-emergence efficacy at 80 g/ha against VIOTR in % [18]: 100%
- Pre-emergence efficacy at 320 g/ha against ECHCG in % [19]: 100%
- Pre-emergence efficacy at 320 g/ha against KCHSC in % [20]: 100%
- Pre-emergence efficacy at 320 g/ha against SETVI in % [21]: 100%
- Pre-emergence efficacy at 320 g/ha against POAAN in % [22]: 100%
- Post-emergence efficacy at 320 g/ha against STEME in % [23]: 100%
- Post-emergence efficacy at 320 g/ha against AMARE in % [24]: 100%
- Pre-emergence efficacy at 80 g/ha against AMARE in % [25]: 100%
- Post-emergence efficacy at 80 g/ha against ABUTH in % [26]: 80%
- Pre-emergence efficacy at 320 g/ha against DIGSA in % [27]: 100%
- Pre-emergence efficacy at 320 g/ha against ALOMY in % [28]: 100%
- Pre-emergence efficacy at 320 g/ha against AMARE in % [29]: 100%
- Post-emergence efficacy at 320 g/ha against POAAN in % [30]: 100%

From patent US20250311727A1, “SUBSTITUTED 2-AMINOAZINES AND SALTS THEREOF, AND USE THEREOF AS HERBICIDAL ACTIVE SUBSTANCES” (BAYER AKTIENGESELLSCHAFT, priority 2022, published 2025)
